According to patent US12193442B2, “Modulation of plant biology” (FBSCIENCES HOLDINGS, INC., priority 2012, dated 2025):

Legend:
Format in all cases: in vivo
[1] = tested on: tomato plants (Lycopersicon es.); experiment: Experiment Fe-4: addition of low levels of iron to CPPA, foliar application; conditions: for Leaf # / Plt. Ht. / Plt. Wt. / Root Wt. / Shoot Wt. / Vigor: foliar
Text: Experiment Fe-4: The purpose of this experiment was to determine if the addition of low levels of iron to a CPPA sample containing lower than typical amounts of iron (e.g., Fe/TOC=0.135) would increase the biological response of plants. Nominal Fe/TOC ratios for CPPA range from 0.10 to 0.28 but the optimum ratio for “as-is” samples of CPPA, as determined in the previous experiments, is between 0.2 and 0.25. Thus, for this experiment, non-agrochemically effective amounts of iron were combined with CPPA samples. Tomato plants (Lycopersicon es.) were produced from seed and transplanted into 3 inch by 3 inch pots. There were 16 treatments plus an untreated check with 20 replicates per treatment arranged in a Randomized Complete Block design. Pots were treated with water (UTC), or CPPA only (3 different rates), Fe only (3 different rates), or CPPA and Fe at each of the rates. The CPPA rates corresponded to 260, 520, and 1040 mg organic carbon (TOC) per hectare and the Fe rates corresponded to 130, 260, and 520 mg Fe per hectare. All pots were treated by foliar application immediately after transplanting. Ten days after the application, ten of the plants were harvested and assessed for vigor, leaf number, plant height, plant weight, root weight, and shoot weight. […] Additional application rates of CPPA and Fe were evaluated with similar synergistic results observed for the combination of CPPA with amounts of iron. Twenty days after transplanting, the remaining ten plants in each treatment were assessed.

seeds = experiment: Seed treatment observations with CPPA, iron-removed CPPA and Fe; conditions: treating seeds with Fe alone
Text: These observations support the premise that the combination of CPPA and Fe are synergistic in their interaction and biological effect on plants and/or seeds.

[2] = tested on: wheat seeds (Triticum aestivum); experiment: Experiment Salt-3: soil treatments of CPPA/salt formulations; conditions: soil drench, 28 days after treatment
Description: For this experiment, wheat seeds (Triticum aestivum) were planted in small pots, approximately 1 inch in diameter and an inch in depth. There were a total of 8 treatments plus an untreated check, with 20 replicates per treatment arranged in a randomized block design. […] Treatments contained CPPA alone, salt alone, or CPPA plus salt. Two rates of CPPA were used; the first was equivalent to 520 mg of TOC per hectare and a second equivalent to 1040 mg of TOC per hectare. […] Twenty eight days after treatment the plants were assessed for plant weight, root weight, and shoot weight. FIG. 19 depicts plant weight, root weight, and shoot weight results for treatments with 520 mg CPPA/ha in combination with varying salt rates, which are summarized in Table 12.

[3] = tested on: tomato plants (Lycopersicon es.); experiment: Experiment Salt-1: CPPA/NaCl composition, foliar application
Description: Experiment Salt-1: […] There were a total of 5 treatments plus an untreated check, each with 10 replicates per treatment arranged in a randomized block design. […] Each treatment comprised samples treated with CPPA alone, salt alone, or CPPA plus salt. Two rates of CPPA were used; the first was equivalent to 520 mg of TOC per hectare and a second equivalent to 1040 mg of TOC per hectare. Salt was applied at a rate equivalent to 2.6 g of salt per hectare. All treatments were diluted with water to provide a final spray volume equivalent to 208 lit per hectare, made with a spray bottle, with just enough spray solution to wet the leaf surface of each plant. Ten days after treatment the plants were assessed for vigor, leaf number, plant height, plant weight, root weight, shoot weight, and leaf conductance using a SPAD meter and are summarized in Table 8 and depicted in FIGS. 10-16.

[4] = tested on: tomato plants (Lycopersicon es.); experiment: Experiment Salt-2: foliar treatment of CPPA/salt formulations; conditions: ten and twenty day assessments averaged
Description: There were a total of 8 treatments plus an untreated check, with 20 replicates per treatment arranged in a randomized block design. Aqueous solutions of CPPA (1000 mg TOC/L) and salt (5000 mg/L) were used for this experiment and all plants were treated with a foliar application at the time they were transplanted into the pots. Each treatment contained CPPA alone, salt alone, or CPPA plus salt. Two rates of CPPA were used; the first was equivalent to 260 mg of TOC per hectare and a second equivalent to 1040 mg of TOC per hectare. […] All treatments were diluted with water to provide a final spray volume equivalent to 208 lit per hectare, applied with a spray bottle, with just enough spray solution to wet the leaf surface of each plant. Ten days after applications, ten each of the plant samples in each treatment were assessed for vigor, leaf number, plant height, plant weight, root weight, and shoot weight. Assessments were repeated at twenty days with the remaining ten plants of each treatment and the results were averaged. FIG. 17 depicts observed vigor, leaf number, plant height, plant weight, root weight, and shoot weight results for treatments to the tomato plants with 0 mg and 260 mg CPPA/ha application rate with variable salt application rates, which are also summarized in Table 4.

[5] = CPPA 260 mg TOC/ha and/or Fe 130 mg Fe/ha (FeSO4), second assessment, 20 days after application
[6] = CPPA 520 mg TOC/ha and/or Fe 130 mg Fe/ha (FeSO4), 20 days after application
[7] = CPPA 1040 mg TOC/ha and/or Fe 520 mg Fe/ha (FeSO4), first assessment, 10 days after application
[8] = CPPA 1040 mg TOC/ha and/or Fe 520 mg Fe/ha (FeSO4), second assessment, 20 days after application
[9] = CP 520 mg/ha and/or NaCl 1300 mg/ha
[10] = CP 1040 mg TOC/ha and/or NaCl 1300 mg/ha
[11] = NaCl 2600 mg/ha alone or with CP 520 mg/ha
[12] = NaCl 2600 mg/ha alone or with CP 1040 mg TOC/ha
[13] = CPPA 520 mg TOC/ha and/or NaCl 2600 mg/ha, ten days after treatment
[14] = CP 1040 mg/ha and/or NaCl 1300 mg/ha
[15] = NaCl 2600 mg/ha alone or with CP 1040 mg/ha

Structure (SMILES): O=S(=O)([O-])[O-].[Fe+2] [Fe, FeSO4]
- Leaf # [1, 5]: 6.3 ab
- Plt. Ht. [1, 5]: 6.4 abc
- Plt. Wt. [1, 5]: 6.4 c
- Root Wt. [1, 5]: 3.0 c
- Shoot Wt. [1, 5]: 3.4 cd
- Vigor [1, 5]: 2.1 c
- Leaf # [1, 6]: 6.3 ab
- Plt. Ht. [1, 6]: 6.4 ab
- Plt. Wt. [1, 6]: 6.4 b
- Root Wt. [1, 6]: 3.0 b
- Shoot Wt. [1, 6]: 3.4 ab
- Vigor [1, 6]: 2.1 c
- Leaf # [1, 7]: 6.6 ab
- Plt. Ht. [1, 7]: 4.2 b
- Plt. Wt. [1, 7]: 4.9 b
- Root Wt. [1, 7]: 1.4 bc
- Shoot Wt. [1, 7]: 3.6 b
- Vigor [1, 7]: 3.8 b
- Leaf # [1, 8]: 5.1 b
- Plt. Ht. [1, 8]: 6.3 b
- Plt. Wt. [1, 8]: 4.5 b
- Root Wt. [1, 8]: 1.6 bc
- Shoot Wt. [1, 8]: 2.9 cd
- Vigor [1, 8]: 2.5 c
- biological effect on plant, root and shoot weights relative to UTC ([1]; high application rate of CPPA alone or of Fe alone, FIG. 9F, Table 4): apparent slightly negative biological effect on the plant, root and shoot weights, although it was not statistically significant
- root development and shoot development (seeds): negative effect on root development and on shoot development

Structure (SMILES): [Cl-].[Na+] [NaCl]
- Plt. Wt. [2, 9]: 2.1cd
- Root Wt. [2, 9]: 0.4bc
- Shoot Wt. [2, 9]: 1.8c
- Plt. Wt. [2, 10]: 2.1de
- Root Wt. [2, 10]: 0.4cd
- Shoot Wt. [2, 10]: 1.8 days
- Plt. Wt. [2, 11]: 2 days
- Root Wt. [2, 11]: 0.3cd
- Shoot Wt. [2, 11]: 1.7c
- Plt. Wt. [2, 12]: 2e
- Root Wt. [2, 12]: 0.3de
- Shoot Wt. [2, 12]: 1.7 days
- Leaf # [3, 13]: 5.3 e
- Plt. Ht. [3, 13]: 3.5 b
- Plt. Wt. [3, 13]: 2.7 c
- Root Wt. [3, 13]: 0.8jc
- SPAD (leaf conductance using a SPAD meter) [3, 13]: 24.2 b
- Shoot Wt. [3, 13]: 2.0 c
- Vigor [3, 13]: 2.4 b
- phytotoxicity of salt and its mitigation ([3]; Table 8, ten days): expected poorest results, indicating a significant amount of phytotoxicity
- Leaf # [4, 14]: 4.7 de
- Plt. Ht. [4, 14]: 4.7 cd inches
- Plt. Wt. [4, 14]: 3.7 d grams
- Root Wt. [4, 14]: 1.4 cd grams
- Shoot Wt. [4, 14]: 2.3 e grams
- Vigor (1-5) [4, 14]: 2.9 de
- Leaf # [4, 15]: 4.1 f
- Plt. Ht. [4, 15]: 4.1 e inches
- Plt. Wt. [4, 15]: 3 de grams
- Root Wt. [4, 15]: 1.0 d grams
- Shoot Wt. [4, 15]: 2.0 ef grams
- Vigor (1-5) [4, 15]: 2.2 g
